This is an account of results in publication PMC7004565, “Nucleotide inhibition of the pancreatic ATP-sensitive K^+ channel explored with patch-clamp fluorometry” (eLife, 2020).

Structures are written as SMILES. Several values for one entry are separate records, joined by “and”; a condition that tells them apart may be missing. Identical values can stand only once.

The assay has as its target T1, Kir6.2-GFP (no SUR1) (Homo sapiens, UniProt Q14654).
T1 construct: ANAP labelling is specific and only full-length Kir6.2 is expressed at the cell membrane; expressed in transfected cells; host or cells: HEK-293T
T1 sequence (Q14654 1-390): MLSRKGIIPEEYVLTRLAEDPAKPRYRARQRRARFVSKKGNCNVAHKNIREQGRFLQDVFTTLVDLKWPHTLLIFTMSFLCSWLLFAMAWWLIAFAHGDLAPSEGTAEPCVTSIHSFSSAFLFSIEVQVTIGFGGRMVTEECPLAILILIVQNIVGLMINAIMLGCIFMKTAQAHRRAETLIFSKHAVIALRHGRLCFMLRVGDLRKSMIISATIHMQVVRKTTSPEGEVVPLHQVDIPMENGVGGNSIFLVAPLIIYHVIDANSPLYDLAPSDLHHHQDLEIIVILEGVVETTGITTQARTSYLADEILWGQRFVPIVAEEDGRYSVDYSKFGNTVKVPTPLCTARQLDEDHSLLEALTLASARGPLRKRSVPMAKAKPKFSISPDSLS
Briefly: FRET (ANAP quenching) nucleotide binding in unroofed membranes. The source says:
To measure nucleotide binding, cells transfected with Kir6.2*-GFP + SUR1 were briefly sonicated, leaving behind unroofed plasma membrane fragments ([Heuser, 2000]; [Zagotta et al., 2016]; [Puljung et al., 2019]) containing ANAP-labelled KATP channels with the intracellular nucleotide-binding sites exposed to the bath solution. The sample was excited with a 385 nm LED and emitted fluorescence from the membrane fragments was passed through a spectrometer, allowing us to separate ANAP, GFP, and TNP-ATP fluorescence by peak wavelength (Figure 1E,F). As expected from FRET, increasing the concentration of TNP-ATP caused a decrement in the ANAP peak at 472 nm and a concomitant increase in the TNP-ATP peak at 561 nm (Figure 1F). We used the quenching of the ANAP peak as a direct measure of TNP-ATP binding as this signal was specific to KATP. In contrast, the peak TNP-ATP fluorescence may include contributions from both specific and non-specific nucleotide binding, as well as direct excitation of TNP-ATP in solution by the 385 nm excitation light. Due to the sharp cut-off of the GFP emission spectrum at shorter wavelengths, our measurements of peak ANAP fluorescence were unaffected by the presence of the GFP tag on Kir6.2.
SUR1 plays a complex role in the regulation of Kir6.2. It increases the Popen of the channel and allows for the activation of the channel by Mg-nucleotides ([Nichols et al., 1996]; [Tucker et al., 1997]; [Babenko and Bryan, 2003]; [Chan, 2003]; [Fang et al., 2006]). However, it also increases the sensitivity of Kir6.2 to nucleotide inhibition ([Babenko and Bryan, 2003]; [Chan, 2003]; [Fang et al., 2006]). To understand the effect of SUR1 on nucleotide inhibition of KATP, we expressed Kir6.2*-GFP in the absence of SUR1 in unroofed membranes and measured TNP-ATP binding (Figure 4—figure supplement 1A). […] Unfortunately, we were unable to achieve high enough expression of Kir6.2*-GFP alone to carry out PCF experiments in the absence of SUR1. […]
Epifluorescence imaging and spectroscopy were performed using a Nikon Eclipse TE2000-U microscope with a 60x water immersion objective (Plan Apo VC, NA = 1.2, Nikon; Kingston upon Thames, UK) or a 100x oil immersion objective (Nikon, Apo TIRF, NA = 1.49). […] Fluorescence spectra were collected by exciting ANAP as above but using a 400 nm long-pass emission filter (ThorLabs), then passing emitted light through an IsoPlane 160 Spectrometer (Princeton Instruments; Trenton, NJ) with a 300 grooves mm^-1 grating. […]
Unroofed membranes were prepared as described previously ([Heuser, 2000]; [Zagotta et al., 2016]; [Puljung et al., 2019]). […] Unroofed membrane fragments were nearly invisible in bright-field images and identified by their GFP and ANAP fluorescence. […]

For `Nc1ncnc2c1ncn2[C@@H]1O[C@H](COP(=O)(O)OP(=O)(O)OP(=O)(O)O)[C@H]2OC3(O[C@H]21)C([N+](=O)[O-])=CC(=[N+]([O-])[O-])C=C3[N+](=O)[O-]` (stereo partly shown) [TNP-ATP, trinitrophenyl-ATP], the “increase in apparent EC50 compared to the same construct in the presence of SUR1” value is “approximately 1.5 fold”. Moreover, the “h (Hill coefficient) fluorescence quenching” value (no SUR1, Hill fit) came to 0.83. In addition, the Emax (no SUR1, Hill fit, fraction, read-out: Emax fluorescence quenching) came to 92%. In addition, the EC50 (no SUR1, Hill fit, n = 14, read-out: EC50 fluorescence quenching) was 37.6 µM and 38 µM.

The term Emax denotes the maximal effect, on the per cent scale that the assay sets. By EC50 is commonly meant the concentration at which the effect is half-maximal.
